Laboratory results from PMC4005910 (Cell Reports, 2014).

Columns and labels:
[1] = Solubility of peptide for TAP binding test; format: physicochemical; conditions: could not be tested for TAP binding
cytoplasmatic peptidase = conditions: half-life; ref Lazaro et al., 2011; cited from earlier work

Row | Sequence | solubility [1] | cytoplasmatic peptidase stability, t1/2 (cytoplasmatic peptidase) [s]
1 | GTTSTLQEQIAW [GW12] | insoluble | 
2 | KAFSPEVIPMF [KF11] |  | 13
